The term EC50 denotes the concentration that produces a half-maximal response. Lower therefore signals a more potent agent. What is called ED50 is the midpoint of the dose-response relation. Low readings indicate an effect at a small dose, high ones a need for a large dose.

The target of one assay is 5HT2A receptor (Homo sapiens, UniProt P28223). In words: EC50 against the 5HT2A receptor (selectivity). It counts as cell-based.
The target in the next assay is T1, human 5HT2C receptor (Homo sapiens, UniProt P28335).
T1 construct: expressed in transfected cells; host or cells: HEK293
T1 sequence (P28335 33-458): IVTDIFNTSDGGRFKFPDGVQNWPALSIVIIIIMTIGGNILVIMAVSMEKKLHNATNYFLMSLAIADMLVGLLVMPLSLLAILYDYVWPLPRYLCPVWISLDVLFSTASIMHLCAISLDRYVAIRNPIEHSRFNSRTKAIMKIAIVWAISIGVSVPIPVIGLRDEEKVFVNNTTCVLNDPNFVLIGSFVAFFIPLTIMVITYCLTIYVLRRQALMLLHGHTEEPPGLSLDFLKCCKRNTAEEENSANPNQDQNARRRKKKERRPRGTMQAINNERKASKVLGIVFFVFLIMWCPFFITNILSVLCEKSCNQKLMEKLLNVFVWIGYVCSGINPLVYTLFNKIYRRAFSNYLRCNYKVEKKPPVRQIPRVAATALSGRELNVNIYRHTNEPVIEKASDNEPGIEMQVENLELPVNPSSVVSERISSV
The assay is described as follows: Intracellular IP3 accumulation assay (IP Accumulation Assay). As to conditions: HEK293 cells transfected with human 5HT2C receptor cDNA. It counts as cell-based. As to the method:
HEK293 cells were transfected in 15 cm sterile dishes with or without (control) 16 ug of human 5HT2C receptor cDNA [for example see, Saltzman, A. G., et al. Biochem. Biophys. Res. Commun. 181, 1469-1478 (1991)] using 25 ul of lipofectamine. Cells were then incubated for 3-4 hours at 37° C./5% CO2 and then transfection media was removed and replaced with 100 ul of DMEM. Cells were then plated onto 100 cm sterile dishes. The next day cells were plated into 96 well PDL microtiter plates at a density of 55K/0.2 ml. Six hours latter, media was exchanged with [^3H]inositol (0.25 uCi/well) in inositol free DMEM and plates were incubated at 37° C./5% CO2 overnight. The next day, wells were aspirated and 200 ul of DMEM containing test compound, 10 uM pargyline, and 10 mM LiCl was added to appropriate wells. Plates were then incubated at 37° C./5% CO2 for three hours followed aspiration and by addition of fresh ice cold stop solution (1M KOH, 19 mM Na-borate, 3.8 mM EDTA) to each well. Plates were kept on ice for 5-10 min and the wells were neutralized by addition of 200 ul of fresh ice cold neutralization solution (7.5% HCl). Plates were then frozen until further processing is desired. The lysate was then transferred into 1.5 ml Eppendorf tubes and 1 ml of chloroform/methanol (1:2) was added/tube. […]

In the next assay the target is 5HT2B receptor (Homo sapiens, UniProt P41595). In words: Activity against the 5HT2B receptor (selectivity). The format is cell-based.
The subject of a further assay is basal food intake. The assay is described as follows: Inhibition of basal food intake in rats. As to conditions: p.o.; for ED50: Rattus norvegicus, po. It counts as in vivo, Male Sprague-Dawley rats. The protocol: Male Sprague-Dawley rats (225-325 g) were accustomed to a reverse day/night schedule (lights on 6:30 pm to 10:30 am) for at least 10 days prior to testing. On the test day, the animals were weighed and placed into individual cages (no bedding) at 9:00 am with free access to water. At 10:00 am, animals were injected with test compound or vehicle (2 ml/kg, p.o.), with treatment groups counter-balanced according to animal weights. Immediately upon lights out at 10:30 am, each animal was presented with a pre-weighed amount of food in a dish. Food consumption over different time points was then determined by weighing the food cup at 2, 4, 6 and 22 hrs after the food was presented. Thus, food consumption was measured at 2.5, 4.5, 6.5, and 22.5 hrs post-injection.

Sequence of 5HT2A receptor (P28223 whole entry): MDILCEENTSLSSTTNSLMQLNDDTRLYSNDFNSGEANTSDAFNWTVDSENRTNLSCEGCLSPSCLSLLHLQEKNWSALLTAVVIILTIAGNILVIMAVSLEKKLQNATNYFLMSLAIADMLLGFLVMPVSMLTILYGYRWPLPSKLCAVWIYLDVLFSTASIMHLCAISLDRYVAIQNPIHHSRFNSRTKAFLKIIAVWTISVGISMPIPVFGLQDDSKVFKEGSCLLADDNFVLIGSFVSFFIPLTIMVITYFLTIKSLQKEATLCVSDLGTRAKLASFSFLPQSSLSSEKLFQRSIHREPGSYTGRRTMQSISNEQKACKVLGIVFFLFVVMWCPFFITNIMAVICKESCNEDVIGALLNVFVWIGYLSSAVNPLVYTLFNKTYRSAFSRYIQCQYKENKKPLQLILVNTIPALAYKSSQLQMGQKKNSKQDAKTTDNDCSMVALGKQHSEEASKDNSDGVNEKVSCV
Sequence of 5HT2B receptor (P41595 whole entry): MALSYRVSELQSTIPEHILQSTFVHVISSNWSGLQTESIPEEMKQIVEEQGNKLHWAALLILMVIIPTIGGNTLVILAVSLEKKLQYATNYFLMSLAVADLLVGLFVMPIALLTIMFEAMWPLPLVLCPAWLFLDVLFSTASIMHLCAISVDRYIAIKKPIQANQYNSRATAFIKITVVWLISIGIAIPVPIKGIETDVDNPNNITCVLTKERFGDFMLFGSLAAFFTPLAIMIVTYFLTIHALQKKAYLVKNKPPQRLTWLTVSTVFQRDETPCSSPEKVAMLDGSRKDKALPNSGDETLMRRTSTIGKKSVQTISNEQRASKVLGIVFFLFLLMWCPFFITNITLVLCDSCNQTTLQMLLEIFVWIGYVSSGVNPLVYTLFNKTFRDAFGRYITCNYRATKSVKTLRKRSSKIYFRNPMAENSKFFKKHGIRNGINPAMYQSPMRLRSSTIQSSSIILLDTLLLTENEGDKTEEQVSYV

In the case of `C[C@@H]1CNCCN1c1cccc(Cl)c1F` [Compound 23, (R)-1-(3-Chloro-2-fluoro-phenyl)-2-methyl-piperazine], the results for the concentration giving a half-maximal response (EC50) on 5HT2A receptor and at human 5HT2C receptor were 44 nM and 7.4 nM, respectively. Also, the “activity against the 5HT2B receptor” value at 5HT2B receptor was “essentially inactive”.
`C[C@@H]1CNCCN1c1cc(Cl)ccc1F` [Compound 44, (R)-1-(5-Chloro-2-fluoro-phenyl)-2-methyl-piperazine]: the concentration for a half-maximal effect (EC50) at 5HT2A receptor is 529 nM; on human 5HT2C receptor it was 8 nM. Moreover, the 50% effective dose (ED50) in the assay with basal food intake (2 h, 2 hours after food presentation) was found to be 33 µmol/kg; in the assay with basal food intake (4 h, 4 hours after food presentation), 58 µmol/kg; in the assay with basal food intake (6 h, 6 hours after food presentation), 97 µmol/kg; in the assay with basal food intake (22 h, 22 hours after food presentation), 441 µmol/kg. In addition, the “effect on food intake relative to vehicle-treated controls” value in the assay with basal food intake (all doses, first 4 hr after food presentation) is “inhibited food intake relative to vehicle-treated controls”. For the same compound, in the assay with basal food intake (highest dose tested), the “duration of food intake inhibition” value was “maintained to 22 hrs after food presentation”. For the same compound, on 5HT2B receptor, the “activity against the 5HT2B receptor” value was “essentially inactive”.

For the origin of these results see patent publication US20070179155A1, “N-phenyl-piperazine derivatives and methods of prophylaxis or treatment of 5ht2c receptor associated diseases” (priority 2003, published 2007).
